Measurements as given in publication PMC4464473, “Synthesis of multivalent carbohydrate mimetics with aminopolyol end groups and their evaluation as L-selectin inhibitors” (Beilstein Journal of Organic Chemistry, 2015).
pIC50: −log10 of the molar value.

Molecular target: T1, L-selectin (Homo sapiens, UniProt P14151)
T1 construct: gene SELL
T1 sequence (P14151 39-372): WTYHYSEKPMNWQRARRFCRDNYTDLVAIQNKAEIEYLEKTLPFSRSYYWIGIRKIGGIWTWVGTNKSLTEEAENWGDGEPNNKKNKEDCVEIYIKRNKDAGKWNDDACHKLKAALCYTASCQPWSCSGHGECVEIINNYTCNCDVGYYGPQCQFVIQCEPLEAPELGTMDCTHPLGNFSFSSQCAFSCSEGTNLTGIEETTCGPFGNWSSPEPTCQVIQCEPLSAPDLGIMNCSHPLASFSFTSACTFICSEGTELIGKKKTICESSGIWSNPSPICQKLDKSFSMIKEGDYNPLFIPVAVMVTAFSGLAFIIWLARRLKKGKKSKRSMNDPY
Assay: competitive SPR binding assay

pIC50	SMILES
5.70	CC1(C)O[C@H](COS(=O)(=O)O)[C@H](NC(=O)c2ccc(-c3cc(-c4ccc(C(=O)N[C@@H]5[C@@H](OS(=O)(=O)O)[C@H](COS(=O)(=O)O)C(C)(C)O[C@@H]5COS(=O)(=O)O)cc4)cc(-c4ccc(C(=O)N[C@@H]5[C@@H](OS(=O)(=O)O)[C@H](COS(=O)(=O)O)C(C)(C)O[C@@H]5COS(=O)(=O)O)cc4)c3)cc2)[C@@H](OS(=O)(=O)O)[C@@H]1COS(=O)(=O)O [compound 34, O-sulfated trivalent amide 34]
6.00	O=C(NC(COS(=O)(=O)O)COS(=O)(=O)O)c1ccc(C(=O)NC(COS(=O)(=O)O)COS(=O)(=O)O)cc1 [compound 32, O-sulfated divalent amide 32]
